Laboratory results as given in patent US7557137B2, “Gamma-lactams as beta-secretase inhibitors” (Bristol-Myers Squibb Company, priority 2002, dated 2009).

The compounds below were run against T1, BACE enzyme (Homo sapiens, UniProt P56817) (assay: BACE enzyme inhibition, fluorescence-quenched peptide substrate MCA-EVNLDAEFK(DNP)). Settings: 50 mM acetate, pH 4.5, 0.25 mg/ml bovine serum albumin, 2.5% DMSO; read-out: Activity Rating (based on IC50 values).
T1 construct: the catalytic domain, appended by a C-terminal poly-histidine tag, is secreted out into the cellular medium; made in house; host or cells: Drosophila melanogaster S2 cells
T1 sequence (P56817 75-416 limits assumed): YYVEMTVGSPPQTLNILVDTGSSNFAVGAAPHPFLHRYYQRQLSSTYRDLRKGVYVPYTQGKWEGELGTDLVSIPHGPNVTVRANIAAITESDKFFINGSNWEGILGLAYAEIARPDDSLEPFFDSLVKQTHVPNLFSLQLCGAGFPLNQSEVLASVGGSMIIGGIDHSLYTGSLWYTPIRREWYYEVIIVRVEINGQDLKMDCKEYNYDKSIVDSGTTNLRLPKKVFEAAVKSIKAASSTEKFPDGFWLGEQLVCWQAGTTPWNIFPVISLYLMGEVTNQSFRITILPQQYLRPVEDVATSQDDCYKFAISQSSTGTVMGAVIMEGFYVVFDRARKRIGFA
Type: biochemical
Source text: There are a number of methods by which inhibitors of the BACE enzyme can be identified experimentally. The enzyme can be obtained from membrane samples from natural tissues or cultured cells or can be expressed recombinantly in a host cell by well known methods of molecular biology. […] The enzymatic activity and/or ligand binding capability of the enzyme can be assessed within these membrane samples, or the enzyme can be purified to varying extents. As an illustrative example, the nucleic acid sequence encoding the pro and catalytic domains of human BACE can be appended on the 5′ end with an untranslated and signal sequence from the gene for acetylcholinesterase, and on the 3′ end with a sequence encoding a poly-histidine tag. This cDNA can then be expressed in Drosophila melanogaster S2 cells in which the signal and pro sequences of the transcribed/translated protein are removed by cellular proteases and the catalytic domain, appended by a C-terminal poly-histidine tag, is secreted out into the cellular medium. The enzyme can then be purified from the culture medium by nickel affinity chromatography by methods well known to those trained in the art [Mallender, W. et al., (2001) “Characterization of recombinant, soluble beta-secretase from an insect cell expression system.” Mol. Pharmacol. 59: 619-626]. Similar strategies for expressing and purifying various forms of BACE in bacterial, mammalian and other cell types would be known to one skilled in the art.
The enzyme thus obtained can be put in contact with a test compound and with an appropriate substrate on which enzyme-mediated peptide bond hydrolysis is known to occur. The ability of the test compound to diminish the rate of substrate hydrolysis can then be quantified as a measure of inhibition potency. Appropriate substrates can be prepared as peptides, proteins, or chemically modified versions of peptides or proteins, that contain an amino acid sequence that is recognized as a substrate by the enzyme. For example, the amino acid sequence immediately proximal to the beta-cleavage site within Swedish mutant APP is known to be recognized as a substrate for BACE. […] Longer peptide and protein substrates can also be designed by extending the amino acid composition on the N-terminal, the C-terminal, or both ends.
In one known application of (SEQ. ID. NO.:1), X is a 7-methoxycoumarin-4-acetyl (MCA) group and Y is a dinitrophenyl (DNP) group [Marcinkeviciene, J. et al., (2001) “Mechanism of inhibition of beta-site amyloid precursor protein-cleaving enzyme (BACE) by a statine-based peptide.” J. Biol. Chem. 276: 23790-23794]. When this peptide is intact, the natural fluorescence of the MCA group is quenched by its proximity to the DNP group. […] The increase in fluorescence intensity that accompanies enzyme-mediated peptide hydrolysis can be measured as a function of time to quantify the velocity of enzyme catalysis. In a typical assay system the BACE enzyme is diluted into a buffer system composed of 50 mM acetate, pH 4.5 containing 0.25 mg/ml bovine serum albumin. To this is added neat dimethyl sulfoxide (DMSO) or a stock solution of test compound dissolved in DMSO so that the final amount of DMSO in all assays is held constant at 2.5% (v:v). The enzymatic reaction is then initiated by addition of a stock solution of the substrate peptide to a known concentration. The fluorescence increase with time after substrate addition is monitored with an appropriate fluorescence detection instrument, such as a microplate reader or spectrofluorometer. The slope of the signal vs. time plot (progress curve) for samples to which only DMSO was added is taken as a measure of the uninhibited velocity and represents 100% enzymatic activity.
For `CCNC(=O)N[C@]1([C@@H](C)CC)CCN([C@@H](CCc2ccccc2)C(=O)N[C@@H](Cc2ccccc2)[C@H](O)CNCc2cccc(OC)c2)C1=O` [Example 18, (2S)-2-(3(S)-ethylureido-3-((S)-sec-butyl)-2-oxo-pyrrolidin-1-yl)-N-[(1S,2R)-1-benzyl-2-hydroxy-3-(3-methoxy-benzylamino)-propyl]-4-phenyl-butyramide], the IC50 was < 100 nM.
Work on `CCC(C)[C@@]1(NC(=O)CCc2cnc[nH]2)CCN([C@@H](CCc2ccccc2)C(=O)N[C@@H](Cc2ccccc2)[C@@H](O)CNCc2cccc(OC)c2)C1=O` (single isomer, unassigned) [Example 21] yielded an IC50 of 100 to 1000 nM.
`CC[C@H](C)[C@@]1(NC(=O)CCc2cnc[nH]2)CCN([C@@H](CCc2ccccc2)C(=O)N[C@@H](Cc2ccccc2)[C@H](O)CNCc2cccc(OC)c2)C1=O` [Example 20, (2S)-2-(3(S)-(3-3H-imidazol-4-yl-propionylamino)-3-((S)-sec-butyl)-2-oxo-pyrrolidin-1-yl)-N-[(1S,2R)-1-benzyl-2-hydroxy-3-(3-methoxy-benzylamino)-propyl]-4-phenyl-butyramide] gave an IC50 of 100 to 1000 nM.
`CCOC(=O)N[C@]1(C(C)CC)CCN([C@@H](CCc2ccccc2)C(=O)N[C@@H](Cc2ccccc2)[C@H](O)CNCc2cccc(OC)c2)C1=O` (single isomer, unassigned) [Example 14] was tested, and the IC50 was < 100 nM.
With `COc1cccc(CNC[C@@H](O)[C@H](Cc2cc(F)cc(F)c2)NC(=O)[C@H](CCc2ccccc2)N2CC[C@](NC(C)=O)(C(C)C)C2=O)c1` [Example 1, (2S)-2-(3-Acetylamino-3-isopropyl-2-oxo-pyrrolidin-1-yl)-N-[(1S,2R)-1-(3,5-difluoro-benzyl)-2-hydroxy-3-(3-methoxy-benzylamino)-propyl]-4-phenyl-butyramide] the IC50 was < 100 nM.
`CCCS(=O)(=O)N[C@]1(C(C)CC)CCN([C@@H](CCc2ccccc2)C(=O)N[C@@H](Cc2ccccc2)C(O)CNCc2cccc(OC)c2)C1=O` (stereo partly drawn) [Example 27, (2S)-2-(3(S)-(propylsulfonamido)-3-((S)-sec-butyl)-2-oxo-pyrrolidin-1-yl)-N-[(1S)-1-benzyl-2-hydroxy-3-(3-methoxy-benzylamino)-propyl]-4-phenyl-butyramide] gave an IC50 of 1000 to 50000 nM.
In the case of `COc1cccc(CNC[C@@H](O)[C@H](Cc2cc(F)cc(F)c2)NC(=O)[C@H](CCc2ccccc2OC)N2CCC(CC3CC3)(NC(C)=O)C2=O)c1` (stereo in doubt) [Example 38, (2S)-2-(3(S)-acetylamino-3-(cyclopropylmethyl)-2-oxo-pyrrolidin-1-yl)-N-[(1S,2R)-1-(3,5-difluorobenzyl)-2-hydroxy-3-(3-methoxybenzylamino)-propyl]-4-(2-methoxyphenyl)-butyramide], the IC50 is reported as < 100 nM.
With `CC[C@H](C)[C@@]1(NC(C)=O)CCN([C@@H](CCc2ccccc2)C(=O)N[C@@H](Cc2ccccc2)[C@H](O)CNCc2cccc(Cl)c2)C1=O` [Example 29, (2S)-2-(3(S)-acetylamino-3-((S)-sec-butyl)-2-oxo-pyrrolidin-1-yl)-N-[(1S,2R)-1-benzyl-2-hydroxy-3-(3-chloro-benzylamino)-propyl]-4-phenyl-butyramide] the IC50 was < 100 nM.
With `CC[C@H](C)[C@@]1(NC(=O)COC)CCN([C@@H](CCc2ccccc2)C(=O)N[C@@H](Cc2ccccc2)[C@H](O)CNCc2cccc(OC)c2)C1=O` [Example 9, (2S)-2-(3(S)-(2-methoxy-acetylamino)-3-((S)-sec-butyl)-2-oxo-pyrrolidin-1-yl)-N-[(1S,2R)-1-benzyl-2-hydroxy-3-(3-methoxy-benzylamino)-propyl]-4-phenyl-butyramide] the IC50 was < 100 nM.
For `CC[C@H](C)[C@@]1(NC(C)=O)CCN([C@@H](CCc2ccccc2)C(=O)N[C@@H](Cc2cc(F)cc(F)c2)[C@H](O)CNCc2cccc(OC)c2)C1=O` [Example 2, (2S)-2-(3(S)-Acetylamino-3-((S)-sec-butyl)-2-oxo-pyrrolidin-1-yl)-N-[(1S,2R)-1-(3,5-difluoro-benzyl)-2-hydroxy-3-(3-methoxy-benzylamino)-propyl]-4-phenyl-butyramide], the IC50 was < 100 nM.
